{"source": "patent US20250230193A1", "about": "“CYCLIC COMPOUND HAVING SELECTIVE KRAS INHIBITORY EFFECT ON HRAS AND NRAS” (CHUGAI SEIYAKU KABUSHIKI KAISHA, priority 2022, published 2025)", "key": {"[1]": {"molecular_target": "GDP-bound HRAS wild-type protein (Homo sapiens, UniProt P01112)", "sequence (P01112 whole entry)": "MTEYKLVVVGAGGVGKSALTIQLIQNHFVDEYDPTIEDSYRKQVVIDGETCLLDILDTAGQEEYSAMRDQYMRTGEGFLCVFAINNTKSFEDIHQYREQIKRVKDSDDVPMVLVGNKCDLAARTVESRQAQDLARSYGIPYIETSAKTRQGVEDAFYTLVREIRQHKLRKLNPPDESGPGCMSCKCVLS", "assay": "Binding to HRAS by surface plasmon resonance (SPR), Single Cycle Kinetics", "conditions": "for HRAS/KRAS (ratio of KD value with respect to HRAS to KD value with respect to KRAS): GDP-bound HRAS wild-type vs GDP-bound KRAS wild-type"}, "[2]": {"molecular_target": "GDP-bound NRAS wild-type protein (Homo sapiens, UniProt P01111)", "sequence (P01111 whole entry)": "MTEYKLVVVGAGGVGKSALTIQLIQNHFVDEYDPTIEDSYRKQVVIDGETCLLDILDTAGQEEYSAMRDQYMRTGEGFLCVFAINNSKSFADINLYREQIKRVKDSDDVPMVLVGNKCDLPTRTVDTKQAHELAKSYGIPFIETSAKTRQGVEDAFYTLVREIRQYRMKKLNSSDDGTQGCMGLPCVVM", "assay": "Binding to NRAS by surface plasmon resonance (SPR), Single Cycle Kinetics", "conditions": "for NRAS/KRAS (ratio of KD value with respect to NRAS to KD value with respect to KRAS): GDP-bound NRAS wild-type vs GDP-bound KRAS wild-type"}, "[3]": {"conditions": "KD ratio HRAS/KRAS, class symbols"}, "[4]": {"conditions": "KD ratio NRAS/KRAS, class symbols"}}, "note": "Where a SMILES comes first, the peptide text is derived from it. Bridges are numbered along the chain shown (N, C = ends). [ ]: non-standard residue; d: D form. The star is where a group is joined. hPhe(3-Cl-4-CF3) = N[C@@H](CCc1ccc(C(F)(F)F)c(Cl)c1)C(=O)O; NPrPhe(4-CF3) = CCCN[C@@H](Cc1ccc(C(F)(F)F)cc1)C(=O)O; NMeAbu(4,4,4-F3) = CN[C@@H](CC(F)(F)F)C(=O)O; NMeGly(cPent) = CN[C@H](C(=O)O)C1CCCC1; NMeD = CN[C@@H](CC(=O)O)C(=O)O; Morpholide = C1CN(*)CCO1; Ac5c = NC1(C(=O)O)CCCC1; Sar = CNCC(=O)O", "data": [{"smiles": "CC[C@H](C)[C@@H]1NC(=O)[C@H](CC(C)C)N(C)C(=O)C[C@@H](C(=O)N2CCOCC2)N(C)C(=O)[C@H](C2CCCC2)N(C)C(=O)C2(CCCC2)NC(=O)[C@@H]2CCCN2C(=O)[C@H](CCc2cc(F)c(C(F)(F)F)c(F)c2)NC(=O)CN(C)C(=O)[C@H](Cc2ccc(C(F)(F)F)cc2)N2CCCC[C@@H](C2=O)N(C)C(=O)CN(C)C1=O", "note": "[PP0552]", "values": [{"measurement": "HRAS/KRAS (ratio of KD value with respect to GDP-bound HRAS wild-type protein to KD value with respect to KRAS)", "setting": "[1]; KD ratio HRAS/KRAS, SPR", "value": "B (a compound having 3 or more and less than 10 is denoted as B)"}, {"measurement": "NRAS/KRAS (ratio of KD value with respect to GDP-bound NRAS wild-type protein to KD value with respect to KRAS)", "setting": "[2]; KD ratio NRAS/KRAS, SPR", "value": "B (a compound having 3 or more and less than 10 is denoted as B)"}]}, {"smiles": "CCC[C@H]1C(=O)N[C@@H]([C@@H](C)CC)C(=O)N(C2CC2)CC(=O)N(C)[C@H]2C/C=C\\CCN(C2=O)[C@@H](Cc2ccc(C(F)(F)F)cc2)C(=O)N(C)CC(=O)N[C@@H](CCc2cc(F)c(C(F)(F)F)c(F)c2)C(=O)N2C[C@H](OCC)C[C@H]2C(=O)N(C)C2(CCC2)C(=O)N(C)[C@@H](C2CCCC2)C(=O)N(C)[C@H](C(=O)N2CCCC2)CC(=O)N1C", "note": "[PP3112]", "values": [{"measurement": "HRAS/KRAS (ratio of KD value with respect to GDP-bound HRAS wild-type protein to KD value with respect to KRAS)", "setting": "[1]; KD ratio HRAS/KRAS, SPR, GDP-bound wild-type proteins", "value": "B (a compound having 3 or more and less than 10 is denoted as B)"}, {"measurement": "NRAS/KRAS (ratio of KD value with respect to GDP-bound NRAS wild-type protein to KD value with respect to KRAS)", "setting": "[2]; KD ratio NRAS/KRAS, SPR, GDP-bound wild-type proteins", "value": "A (a compound having 10 or more and less than 20 is denoted as A)"}]}, {"smiles": "CC[C@H](C)[C@@H]1NC(=O)[C@H](Cc2ccccc2)N(C)C(=O)C[C@@H](C(=O)N2CCOCC2)N(C)C(=O)[C@H](C2CCCC2)N(C)C(=O)C2(CCCC2)NC(=O)[C@@H]2CCCN2C(=O)[C@H](CCc2ccc(C(F)(F)F)c(Cl)c2)NC(=O)CN(C)C(=O)[C@H](Cc2ccc(F)cc2)N2CCCCC[C@@H](C2=O)N(C)C(=O)CN(C)C1=O", "note": "[PP0961]", "values": [{"measurement": "HRAS/KRAS (ratio of KD value with respect to HRAS to KD value with respect to KRAS)", "setting": "[1]; KD ratio, SPR", "value": "B (a compound having 3 or more and less than 10 is denoted as B)"}, {"measurement": "NRAS/KRAS (ratio of KD value with respect to NRAS to KD value with respect to KRAS)", "setting": "[2]; KD ratio, SPR", "value": "B (a compound having 3 or more and less than 10 is denoted as B)"}]}, {"smiles": "C#CCN1CC(=O)N(C)[C@H]2C/C=C\\CCN(C2=O)[C@@H](Cc2ccc(C)cc2)C(=O)N(C)CC(=O)N[C@@H](CCc2ccc(C(F)(F)F)c(Cl)c2)C(=O)N2C[C@H](OCC)C[C@H]2C(=O)NC2(CC(C)(C)C2)C(=O)N(C)[C@@H](C2CCCC2)C(=O)N(C)[C@H](C(=O)N(C)C)CC(=O)N(C)[C@@H](CCC)C(=O)N[C@@H](CC(C)C)C1=O", "note": "[PP2526]", "values": [{"measurement": "HRAS/KRAS (ratio of KD value with respect to GDP-bound HRAS wild-type protein to KD value with respect to KRAS)", "setting": "[1]; [3]", "value": "B (a compound having 3 or more and less than 10 is denoted as B)"}, {"measurement": "NRAS/KRAS (ratio of KD value with respect to GDP-bound NRAS wild-type protein to KD value with respect to KRAS)", "setting": "[2]; [4]", "value": "A (a compound having 10 or more and less than 20 is denoted as A)"}]}, {"smiles": "CC[C@H](C)[C@@H]1NC(=O)[C@H](CC)N(C)C(=O)C[C@@H](C(=O)N(C)C)N(C)C(=O)[C@H](C2CCCC2)N(C)C(=O)C2(CCC2)NC(=O)[C@H](CC2CCCCC2)N(C)C(=O)[C@H](CCc2cc(F)c(C(F)(F)F)c(F)c2)NC(=O)CN(C)C(=O)[C@H](Cc2ccc(C(F)(F)F)cc2)N2CC/C=C\\C[C@@H](C2=O)N(C)C(=O)CN(C)C1=O", "note": "[PP1149]", "values": [{"measurement": "HRAS/KRAS (ratio of KD value with respect to HRAS to KD value with respect to KRAS)", "setting": "[1]; KD ratio, SPR", "value": "A (a compound having 10 or more and less than 20 is denoted as A)"}, {"measurement": "NRAS/KRAS (ratio of KD value with respect to NRAS to KD value with respect to KRAS)", "setting": "[2]; KD ratio, SPR", "value": "A (a compound having 10 or more and less than 20 is denoted as A)"}]}, {"smiles": "CCCN1C(=O)CN(C)C(=O)CN(C)C(=O)[C@H]([C@@H](C)CC)NC(=O)[C@H](CC(F)(F)F)N(C)C(=O)C[C@@H](C(=O)N2CCOCC2)N(C)C(=O)[C@H](C2CCCC2)N(C)C(=O)C2(CCCC2)NC(=O)[C@@H]2CCCN2C(=O)[C@H](CCc2ccc(C(F)(F)F)c(Cl)c2)NC(=O)CN(C)C(=O)[C@@H]1Cc1ccc(C(F)(F)F)cc1", "note": "[PP0187] ([NMeAbu(4,4,4-F3)]I[Sar][Sar][NPrPhe(4-CF3)][Sar][hPhe(3-Cl-4-CF3)]P[Ac5c][NMeGly(cPent)][NMeD]-Morpholide; lactam N-11)", "values": [{"measurement": "HRAS/KRAS (ratio of KD for GDP-bound HRAS wild-type to KD for KRAS)", "setting": "[1]; KD ratio HRAS/KRAS, SPR", "value": "C (A compound having a KD ratio of 0.1 or more and less than 3 is denoted as C)"}, {"measurement": "NRAS/KRAS (ratio of KD for GDP-bound NRAS wild-type to KD for KRAS)", "setting": "[2]; KD ratio NRAS/KRAS, SPR", "value": "B (a compound having 3 or more and less than 10 is denoted as B)"}]}, {"smiles": "CCC[C@H]1C(=O)N[C@@H]([C@@H](C)CC)C(=O)N(C)CC(=O)N(C)[C@H]2C/C=C\\CCN(C2=O)[C@@H](Cc2ccc(C)cc2)C(=O)N(C)CC(=O)N[C@@H](CCc2ccc(Cl)c(Cl)c2)C(=O)N2CCCCC[C@H]2C(=O)NC2(CC(C)(C)C2)C(=O)N(C)[C@@H](C(CC)CC)C(=O)N(C)[C@H](C(=O)N(C)C)CC(=O)N1C", "note": "[PP2962]", "values": [{"measurement": "HRAS/KRAS (ratio of KD value with respect to GDP-bound HRAS wild-type protein to KD value with respect to KRAS)", "setting": "[1]; [3]", "value": "A (a compound having 10 or more and less than 20 is denoted as A)"}, {"measurement": "NRAS/KRAS (ratio of KD value with respect to GDP-bound NRAS wild-type protein to KD value with respect to KRAS)", "setting": "[2]; [4]", "value": "AA (a compound having 20 or more is denoted as AA)"}]}, {"smiles": "CCCN1CC(=O)N(C)[C@H]2C/C=C\\CCN(C2=O)[C@@H](Cc2ccc(C(F)(F)F)cc2)C(=O)N(C)CC(=O)N[C@@H](CCc2cc(F)c(C(F)(F)F)c(F)c2)C(=O)N2C[C@H](OCC)C[C@H]2C(=O)NC2(CCC2)C(=O)N(C)[C@@H](C2CCCC2)C(=O)N(C)[C@H](C(=O)N(C)C)CC(=O)N(C)[C@@H](CC)C(=O)N[C@@H]([C@@H](C)CC)C1=O", "note": "[PP1053]", "values": [{"measurement": "HRAS/KRAS (ratio of KD value with respect to HRAS to KD value with respect to KRAS)", "setting": "[1]; KD ratio, SPR", "value": "A (a compound having 10 or more and less than 20 is denoted as A)"}, {"measurement": "NRAS/KRAS (ratio of KD value with respect to NRAS to KD value with respect to KRAS)", "setting": "[2]; KD ratio, SPR", "value": "A (a compound having 10 or more and less than 20 is denoted as A)"}]}, {"smiles": "CCOC[C@H]1C(=O)N[C@@H]([C@@H](C)CC)C(=O)N(C)CC(=O)N(C)[C@H]2C/C=C\\CCN(C2=O)[C@@H](CC2CCC(F)(F)CC2)C(=O)N(C)CC(=O)N[C@@H](CCc2ccc(C(F)(F)F)c(OC)c2)C(=O)N2C[C@H](OCC)C[C@H]2C(=O)N(C)C2(CCC2)C(=O)N(C)[C@@H](C(CC)CC)C(=O)N(C)[C@H](C(=O)N(C)C)CC(=O)N1C", "note": "[PP2347]", "values": [{"measurement": "HRAS/KRAS (ratio of KD value with respect to HRAS to KD value with respect to KRAS)", "setting": "[1]; SPR", "value": "A (a compound having 10 or more and less than 20 is denoted as A)"}, {"measurement": "NRAS/KRAS (ratio of KD value with respect to NRAS to KD value with respect to KRAS)", "setting": "[2]; SPR", "value": "A (a compound having 10 or more and less than 20 is denoted as A)"}]}, {"smiles": "CCC[C@H]1C(=O)N[C@@H]([C@@H](C)CC)C(=O)N(C)CC(=O)N(C)[C@H]2C/C=C\\CCN(C2=O)[C@@H](Cc2ccc(C(F)(F)F)cc2)C(=O)N(C)CC(=O)N[C@@H](CCc2ccc(Cl)c(OC)c2)C(=O)N2C[C@H](OCC)C[C@H]2C(=O)NC2(CC(C)(C)C2)C(=O)N(C)[C@@H](C2CCCC2)C(=O)N(C)[C@H](C(=O)N(C)C)CC(=O)N1C", "note": "[PP2788]", "values": [{"measurement": "HRAS/KRAS (ratio of KD value with respect to GDP-bound HRAS wild-type protein to KD value with respect to KRAS)", "setting": "[1]; [3]", "value": "A (a compound having 10 or more and less than 20 is denoted as A)"}, {"measurement": "NRAS/KRAS (ratio of KD value with respect to GDP-bound NRAS wild-type protein to KD value with respect to KRAS)", "setting": "[2]; [4]", "value": "A (a compound having 10 or more and less than 20 is denoted as A)"}]}, {"smiles": "CCO[C@@H]1C[C@H]2C(=O)NC3(CCC3)C(=O)N(C)[C@@H](C3CCCC3)C(=O)N(C)[C@H](C(=O)N3CCOCC3)CC(=O)N(C)[C@@H](CC)C(=O)N[C@@H]([C@@H](C)CC)C(=O)N(C)CC(=O)N(C)[C@H]3C[C@@H](C)CCN(C3=O)[C@@H](Cc3ccc(C(F)(F)F)cc3)C(=O)N(C)CC(=O)N[C@@H](CCc3cc(F)c(C(F)(F)F)c(F)c3)C(=O)N2C1", "note": "[PP1027]", "values": [{"measurement": "HRAS/KRAS (ratio of KD value with respect to HRAS to KD value with respect to KRAS)", "setting": "[1]; KD ratio, SPR", "value": "B (a compound having 3 or more and less than 10 is denoted as B)"}, {"measurement": "NRAS/KRAS (ratio of KD value with respect to NRAS to KD value with respect to KRAS)", "setting": "[2]; KD ratio, SPR", "value": "C (A compound having a KD ratio of 0.1 or more and less than 3 is denoted as C)"}]}]}
